# In PubChem BioAssay (NCI):
#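 Briefly, cells in 96-well plates were exposed to five compound concentrations for 48 h, and endpoints were estimated by linear interpolation. Abbreviation: GI50, concentration required for 50% inhibition of growth. TGI denotes the concentration required for complete inhibition of growth.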
# Key:
# Assay in all cases: NCI anticancer screen, dose series, 48 h
# MDA-MB-435 = system: MDA-MB-435
# 786-0 renal = system: 786-0 renal
# SK-MEL-28 melanoma = system: SK-MEL-28 melanoma
# TK-10 renal = system: TK-10 renal
# K-562 leukemia = system: K-562 leukemia
# M14 melanoma = system: M14 melanoma
# SW-620 colon = system: SW-620 colon
# SK-MEL-5 melanoma = system: SK-MEL-5 melanoma
# MOLT-4 leukemia = system: MOLT-4 leukemia
# SNB-75 CNS = system: SNB-75 CNS
# NCI/ADR-RES ovarian = system: NCI/ADR-RES ovarian
# DU-145 prostate = system: DU-145 prostate
# HCT-116 colon = system: HCT-116 colon
# U251 CNS = system: U251 CNS
# CCRF-CEM leukemia = system: CCRF-CEM leukemia
# MALME-3M melanoma = system: MALME-3M melanoma
# OVCAR-4 ovarian = system: OVCAR-4 ovarian
# LOX IMVI melanoma = system: LOX IMVI melanoma
# OVCAR-5 ovarian = system: OVCAR-5 ovarian
# OVCAR-8 ovarian = system: OVCAR-8 ovarian
# HOP-92 NSCLC = system: HOP-92 NSCLC
# BT-549 breast = system: BT-549 breast
# NCI-H460 lung = system: NCI-H460 lung
# T-47D breast = system: T-47D breast
# A549 NSCLC = system: A549 NSCLC
# MDA-MB-231 breast = system: MDA-MB-231 breast
# ACHN renal = system: ACHN renal
# NCI-H226 lung = system: NCI-H226 lung
# SK-OV-3 ovarian = system: SK-OV-3 ovarian
# EKVX NSCLC = system: EKVX NSCLC
# COLO 205 colon = system: COLO 205 colon
# SN12C renal = system: SN12C renal
# NCI-H23 lung = system: NCI-H23 lung
# SNB-19 CNS = system: SNB-19 CNS
# SF-539 CNS = system: SF-539 CNS
# HL-60(TB) leukemia = system: HL-60(TB) leukemia
# MCF7 breast = system: MCF7 breast
# UACC-257 melanoma = system: UACC-257 melanoma
# SF-295 CNS = system: SF-295 CNS
# UO-31 renal = system: UO-31 renal
# UACC-62 melanoma = system: UACC-62 melanoma
# IGROV1 ovarian = system: IGROV1 ovarian
# NCI-H522 lung = system: NCI-H522 lung
# HS 578T breast = system: HS 578T breast
# HT29 colon = system: HT29 colon
# A498 renal = system: A498 renal
# HOP-62 NSCLC = system: HOP-62 NSCLC
# OVCAR-3 ovarian = system: OVCAR-3 ovarian
# HCT-15 colon = system: HCT-15 colon
# PC-3 prostate = system: PC-3 prostate
# RPMI-8226 leukemia = system: RPMI-8226 leukemia
# KM12 colon = system: KM12 colon
# SF-268 CNS = system: SF-268 CNS
# HCC-2998 colon = system: HCC-2998 colon
compound,measurement,setting,value
O=c1c(-c2ccccc2)coc2cc(OC/C(=N/O)c3ccccc3)ccc12,GI50,MDA-MB-435,20.5 µM
same,TGI,MDA-MB-435,> 100 µM
same,GI50,786-0 renal,25.4 µM
same,TGI,786-0 renal,50.4 µM
same,GI50,SK-MEL-28 melanoma,28.8 µM
same,TGI,SK-MEL-28 melanoma,> 100 µM
same,GI50,TK-10 renal,13.1 µM
same,TGI,TK-10 renal,38.4 µM
same,GI50,K-562 leukemia,11.3 µM
same,TGI,K-562 leukemia,> 100 µM
same,GI50,M14 melanoma,14.4 µM
same,TGI,M14 melanoma,39.7 µM
same,GI50,SW-620 colon,20.2 µM
same,TGI,SW-620 colon,64.8 µM
same,GI50,SK-MEL-5 melanoma,10.9 µM
same,TGI,SK-MEL-5 melanoma,24.6 µM
same,GI50,MOLT-4 leukemia,12.4 µM
same,TGI,MOLT-4 leukemia,> 100 µM
same,GI50,SNB-75 CNS,22.9 µM
same,TGI,SNB-75 CNS,79.2 µM
same,GI50,NCI/ADR-RES ovarian,17.8 µM
same,TGI,NCI/ADR-RES ovarian,60 µM
same,GI50,DU-145 prostate,29 µM
same,TGI,DU-145 prostate,94.1 µM
same,GI50,HCT-116 colon,11.2 µM
same,TGI,HCT-116 colon,68.6 µM
same,GI50,U251 CNS,21.4 µM
same,TGI,U251 CNS,56.1 µM
same,GI50,CCRF-CEM leukemia,4.22 µM
same,TGI,CCRF-CEM leukemia,> 100 µM
same,GI50,MALME-3M melanoma,10.4 µM
same,TGI,MALME-3M melanoma,28.3 µM
same,GI50,OVCAR-4 ovarian,14.9 µM
same,TGI,OVCAR-4 ovarian,47.2 µM
same,GI50,LOX IMVI melanoma,18.4 µM
same,TGI,LOX IMVI melanoma,37.4 µM
same,GI50,OVCAR-5 ovarian,37 µM
same,TGI,OVCAR-5 ovarian,> 100 µM
same,GI50,OVCAR-8 ovarian,17.3 µM
same,TGI,OVCAR-8 ovarian,50.8 µM
same,GI50,HOP-92 NSCLC,15.3 µM
same,TGI,HOP-92 NSCLC,47.4 µM
same,GI50,BT-549 breast,29.8 µM
same,TGI,BT-549 breast,> 100 µM
same,GI50,NCI-H460 lung,11 µM
same,TGI,NCI-H460 lung,26.9 µM
same,GI50,T-47D breast,15.3 µM
same,TGI,T-47D breast,96.7 µM
same,GI50,A549 NSCLC,3.62 µM
same,TGI,A549 NSCLC,25.2 µM
same,GI50,MDA-MB-231 breast,18.2 µM
same,TGI,MDA-MB-231 breast,43.7 µM
same,GI50,ACHN renal,21.8 µM
same,TGI,ACHN renal,43.5 µM
same,GI50,NCI-H226 lung,23.4 µM
same,TGI,NCI-H226 lung,> 100 µM
same,GI50,SK-OV-3 ovarian,25.9 µM
same,TGI,SK-OV-3 ovarian,88.5 µM
same,GI50,EKVX NSCLC,13.4 µM
same,TGI,EKVX NSCLC,48.5 µM
same,GI50,COLO 205 colon,26.5 µM
same,TGI,COLO 205 colon,72.6 µM
same,GI50,SN12C renal,18 µM
same,TGI,SN12C renal,39.9 µM
same,GI50,NCI-H23 lung,> 100 µM
same,TGI,NCI-H23 lung,> 100 µM
same,GI50,SNB-19 CNS,23.2 µM
same,TGI,SNB-19 CNS,86.9 µM
same,GI50,SF-539 CNS,25.4 µM
same,TGI,SF-539 CNS,53.3 µM
same,GI50,HL-60(TB) leukemia,21.3 µM
same,TGI,HL-60(TB) leukemia,95.9 µM
same,GI50,MCF7 breast,23.3 µM
same,TGI,MCF7 breast,47.1 µM
same,GI50,UACC-257 melanoma,3.03 µM
same,TGI,UACC-257 melanoma,9.03 µM
same,GI50,SF-295 CNS,29.5 µM
same,TGI,SF-295 CNS,74.9 µM
same,GI50,UO-31 renal,18.6 µM
same,TGI,UO-31 renal,76.5 µM
same,GI50,UACC-62 melanoma,15.2 µM
same,TGI,UACC-62 melanoma,31.4 µM
same,GI50,IGROV1 ovarian,17.5 µM
same,TGI,IGROV1 ovarian,> 100 µM
same,GI50,NCI-H522 lung,7.54 µM
same,TGI,NCI-H522 lung,64.4 µM
same,GI50,HS 578T breast,34.4 µM
same,TGI,HS 578T breast,86 µM
same,GI50,HT29 colon,14.7 µM
same,TGI,HT29 colon,53.2 µM
same,GI50,A498 renal,16.5 µM
same,TGI,A498 renal,33.4 µM
same,GI50,HOP-62 NSCLC,18.9 µM
same,TGI,HOP-62 NSCLC,51.3 µM
same,GI50,OVCAR-3 ovarian,24.7 µM
same,TGI,OVCAR-3 ovarian,60.1 µM
same,GI50,HCT-15 colon,16.2 µM
same,TGI,HCT-15 colon,39.6 µM
same,GI50,PC-3 prostate,17.4 µM
same,TGI,PC-3 prostate,46 µM
same,GI50,RPMI-8226 leukemia,13.8 µM
same,TGI,RPMI-8226 leukemia,53 µM
same,GI50,KM12 colon,20.2 µM
same,TGI,KM12 colon,48.3 µM
same,GI50,SF-268 CNS,13.5 µM
same,TGI,SF-268 CNS,28.7 µM
same,GI50,HCC-2998 colon,10.1 µM
same,TGI,HCC-2998 colon,27.2 µM
